Experimental data reported in US4431742A, “Radioreceptor assay for benzodiazepines in saliva” (The United States of America as represented by the …, priority 1981, dated 1984).

Experiments:
[1] = system: diazepam receptor (fresh rat frontal cortex); assay: radioreceptor assay: inhibition of ^3 H-diazepam binding (selectivity, drugs incubated with saliva); conditions: 10^-5 M, ^3 H-diazepam 0.50 nM
[2] = system: benzodiazepine receptor (fresh rat frontal cortex); assay: recovery of benzodiazepines pre-incubated with saliva, measured by benzodiazepine radioreceptor assay; format: binding; conditions: 100 nM diazepam pre-incubated with control saliva

Q: CNCCCN1c2ccccc2CCc2ccccc21 [desmethylimipramine] was tested. Which “inhibition of ^3 H-diazepam binding compared with saliva itself” value (from here on “inhibition … compared with saliva itself”) [1] did it give?
A: failed to inhibit ^3 H-diazepam binding more than saliva itself

Q: With C=CCN1CC[C@]23CCCC[C@H]2[C@H]1Cc1ccc(O)cc13 [levallorphan] as the compound, how does the “inhibition … compared with saliva itself” value [1] read?
A: failed to inhibit ^3 H-diazepam binding more than saliva itself

Q: Which “inhibition … compared with saliva itself” value [1] does the source give for O=c1[nH]c2ccccc2n1C1CCN(CCCC(c2ccc(F)cc2)c2ccc(F)cc2)CC1 [pimozide] here?
A: failed to inhibit ^3 H-diazepam binding more than saliva itself

Q: With CN1C(=O)CN=C(c2ccccc2)c2cc(Cl)ccc21 [diazepam] as the compound, how does the “maximum percentage lowering of binding vs drug added directly with no saliva present” value [2] read?
A: equivalent

Q: With CN(C)CCCN1c2ccccc2Sc2ccc(Cl)cc21 [chlorpromazine] as the compound, how does the “inhibition … compared with saliva itself” value [1] read?
A: failed to inhibit ^3 H-diazepam binding more than saliva itself

Q: How did the “inhibition … compared with saliva itself” value [1] turn out when C#CCN(C)Cc1ccccc1 [pargyline] was run?
A: failed to inhibit ^3 H-diazepam binding more than saliva itself
